Source: PubChem BioAssay (NCI)
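Results reflect a 48-hour exposure of cells in 96-well plates to compound at five concentrations. GI50 = concentration required for 50% inhibition of growth. At the TGI there is no net growth.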

Assays:
Test in all cases: NCI tumour cell line growth inhibition, 48 h
OVCAR-3 ovarian = test system: OVCAR-3 ovarian
NCI-H460 lung = test system: NCI-H460 lung
OVCAR-8 ovarian = test system: OVCAR-8 ovarian
SK-MEL-2 melanoma = test system: SK-MEL-2 melanoma
K-562 leukemia = test system: K-562 leukemia
TK-10 renal = test system: TK-10 renal
DU-145 prostate = test system: DU-145 prostate

With CCC(C)(C)c1ccc(OCCCCCCN2CCNCC2)cc1 the GI50 (OVCAR-3 ovarian) was 2.73 µM, the TGI (OVCAR-3 ovarian) was 7.86 µM and the GI50 (NCI-H460 lung) was 1.94 µM. It also gave a TGI (NCI-H460 lung) of 3.87 µM, a GI50 (OVCAR-8 ovarian) of 2.45 µM and a TGI (OVCAR-8 ovarian) of 5.3 µM. For the same compound, the GI50 (SK-MEL-2 melanoma) was 2.19 µM, the TGI (SK-MEL-2 melanoma) was 4.74 µM and the GI50 (K-562 leukemia) was 1.7 µM. For the same compound, the TGI (K-562 leukemia) was 3.93 µM, the GI50 (TK-10 renal) was 1.8 µM and the TGI (TK-10 renal) was 3.46 µM. For the same compound, the GI50 (DU-145 prostate) was 2.39 µM and the TGI (DU-145 prostate) was 6.06 µM.
With COc1ccc2c(O)cc3c(c2c1)[C@H](CCl)CN3C(=O)c1cc2cc(NC(=O)CCN3CCOCC3)ccc2[se]1 the GI50 (OVCAR-3 ovarian) was less than 0.001 µM, the TGI (OVCAR-3 ovarian) was greater than 10 µM and the GI50 (NCI-H460 lung) was less than 0.001 µM. For the same compound, the TGI (NCI-H460 lung) was 1.09 µM, the GI50 (OVCAR-8 ovarian) was less than 0.001 µM and the TGI (OVCAR-8 ovarian) was 0.0843 µM. For the same compound, the GI50 (SK-MEL-2 melanoma) was less than 0.001 µM, the TGI (SK-MEL-2 melanoma) was less than 0.001 µM and the GI50 (K-562 leukemia) was less than 0.001 µM. It also gave a TGI (K-562 leukemia) greater than 10 µM, a GI50 (TK-10 renal) of less than 0.001 µM and a GI50 (DU-145 prostate) of less than 0.001 µM. The TGI (DU-145 prostate) was 0.137 µM.
With CCn1c(CO)nn(-c2cc(O[C@@H](C)C(F)(F)F)c(C(=O)Nc3c(F)cccc3Cl)cc2F)c1=O the GI50 (OVCAR-3 ovarian) was 0.0304 µM, the TGI (OVCAR-3 ovarian) was greater than 100 µM and the GI50 (NCI-H460 lung) was less than 0.01 µM. It also gave a TGI (NCI-H460 lung) greater than 33.9 µM, a GI50 (OVCAR-8 ovarian) of less than 0.01 µM and a TGI (OVCAR-8 ovarian) greater than 100 µM. The GI50 (SK-MEL-2 melanoma) was greater than 28.4 µM, the TGI (SK-MEL-2 melanoma) was greater than 100 µM and the GI50 (K-562 leukemia) was less than 0.01 µM. It also gave a TGI (K-562 leukemia) greater than 100 µM, a GI50 (DU-145 prostate) of less than 0.0192 µM and a TGI (DU-145 prostate) greater than 100 µM.
Work on O=[N+]([O-])c1ccc2c(c1)C(c1ccccc1Cl)=Nc1cn[nH]c1N2 yielded a GI50 (OVCAR-3 ovarian) of 14.1 µM, a TGI (OVCAR-3 ovarian) greater than 25 µM and a GI50 (NCI-H460 lung) of 16.1 µM. For the same compound, the TGI (NCI-H460 lung) was greater than 25 µM, the GI50 (OVCAR-8 ovarian) was 17.9 µM and the TGI (OVCAR-8 ovarian) was greater than 25 µM. For the same compound, the GI50 (SK-MEL-2 melanoma) was 10.7 µM, the TGI (SK-MEL-2 melanoma) was greater than 22 µM and the GI50 (K-562 leukemia) was 19 µM. It also gave a TGI (K-562 leukemia) greater than 25 µM, a GI50 (TK-10 renal) of 15.5 µM and a TGI (TK-10 renal) greater than 25 µM. It also gave a GI50 (DU-145 prostate) of 20.4 µM and a TGI (DU-145 prostate) greater than 25 µM.
Compound Cc1cc[c-]cc1.Fc1c[c-]c(-c2ccccn2)c(F)c1.[Pt+2].c1ccc(P(C[PH+](c2ccccc2)c2ccccc2)c2ccccc2)cc1 has a GI50 (OVCAR-3 ovarian) of 1.72 µM, a TGI (OVCAR-3 ovarian) of 10.6 µM and a GI50 (NCI-H460 lung) of 1.77 µM. It also gave a TGI (NCI-H460 lung) of 7.1 µM, a GI50 (OVCAR-8 ovarian) of 2.68 µM and a TGI (OVCAR-8 ovarian) of 15.4 µM. The GI50 (SK-MEL-2 melanoma) was 2.36 µM, the TGI (SK-MEL-2 melanoma) was 6.61 µM and the GI50 (K-562 leukemia) was 1.56 µM. It also gave a TGI (K-562 leukemia) of 12.2 µM, a GI50 (TK-10 renal) of 2.93 µM and a TGI (TK-10 renal) of 14.8 µM. It also gave a GI50 (DU-145 prostate) of 2.99 µM and a TGI (DU-145 prostate) of 12.8 µM.
CN(CCCNC(=O)Cc1ccc2ccc3cccc4ccc1c2c34)CCCNc1cc(-c2ccc3ccccc3c2)nc2ccccc12 was tested, and the GI50 (OVCAR-3 ovarian) was 1.76 µM, the TGI (OVCAR-3 ovarian) was 3.29 µM and the GI50 (NCI-H460 lung) was 1.65 µM. It also gave a TGI (NCI-H460 lung) of 3.61 µM, a GI50 (SK-MEL-2 melanoma) of 1.82 µM and a TGI (SK-MEL-2 melanoma) of 3.55 µM. The GI50 (TK-10 renal) was 1.47 µM, the TGI (TK-10 renal) was 3.02 µM and the GI50 (DU-145 prostate) was 1.55 µM. The TGI (DU-145 prostate) was 2.89 µM.
In the case of CCCCC1(CN2CCOCC2)S/C(=N/c2nc(CC(=O)OCC)cs2)NC1=O (configuration not stated), the GI50 (OVCAR-3 ovarian) is reported as 21.2 µM, the TGI (OVCAR-3 ovarian) is reported as 67.7 µM and the GI50 (OVCAR-8 ovarian) is reported as 33.9 µM. For the same compound, the TGI (OVCAR-8 ovarian) was greater than 100 µM, the GI50 (SK-MEL-2 melanoma) was 29.7 µM and the TGI (SK-MEL-2 melanoma) was 89.2 µM. The GI50 (K-562 leukemia) was 30.9 µM, the TGI (K-562 leukemia) was greater than 100 µM and the GI50 (TK-10 renal) was 31.7 µM. The TGI (TK-10 renal) was 99.1 µM, the GI50 (DU-145 prostate) was 27 µM and the TGI (DU-145 prostate) was greater than 100 µM.
COc1cc2c(cc1O)C1Cc3ccc(OC)c(O)c3C(C2)N1C (configuration not stated) was tested, and the TGI (OVCAR-3 ovarian) was greater than 100 µM, the TGI (NCI-H460 lung) was greater than 100 µM and the TGI (OVCAR-8 ovarian) was greater than 100 µM. For the same compound, the TGI (SK-MEL-2 melanoma) was greater than 100 µM, the TGI (TK-10 renal) was greater than 100 µM and the TGI (DU-145 prostate) was greater than 100 µM.
Cc1cc(C2CC(O)C(CO)O2)cc2c(=O)[nH]c(N)nc12 (configuration not stated) was tested, and the GI50 (OVCAR-3 ovarian) was greater than 100 µM, the TGI (OVCAR-3 ovarian) was greater than 100 µM and the GI50 (NCI-H460 lung) was greater than 100 µM. The TGI (NCI-H460 lung) was greater than 100 µM, the GI50 (OVCAR-8 ovarian) was greater than 100 µM and the TGI (OVCAR-8 ovarian) was greater than 100 µM. It also gave a GI50 (SK-MEL-2 melanoma) greater than 100 µM, a TGI (SK-MEL-2 melanoma) greater than 100 µM and a GI50 (K-562 leukemia) greater than 100 µM. The TGI (K-562 leukemia) was greater than 100 µM, the GI50 (DU-145 prostate) was greater than 100 µM and the TGI (DU-145 prostate) was greater than 100 µM.
